Literature values as cited in patent US3993756A, “Antilipemic agent containing a soybean oil fraction” (priority 1975, dated 1976).

Columns and labels:
[1] = system: cholesterol level in blood serum; conditions: for effect on cholesterol level in blood serum: in vivo
[2] = in vivo

## CC[C@H](/C=C/[C@@H](C)[C@H]1CC[C@H]2[C@@H]3CC=C4C[C@@H](O)CC[C@]4(C)[C@H]3CC[C@]12C)C(C)C [stigmasterol]
[1]
  effect on cholesterol level in blood serum: effective for lowering the cholesterol level in blood serum

## CC[C@H](CC[C@@H](C)[C@H]1CC[C@H]2[C@@H]3CC=C4C[C@@H](O)CC[C@]4(C)[C@H]3CC[C@]12C)C(C)C [β-sitosterol]
[2]
  absorption by the body: low absorption
[1]; 20 to 30 g per day, long periods
  liver or kidney troubles: inviting liver or kidney troubles
[1]
  effect on cholesterol level in blood serum: effective for lowering the cholesterol level in blood serum
